Experimental data taken from patent US20120015886A1, “METHOD FOR PREPARING RECOMBINANT PEPTIDE FROM SPIDER VENOM AND METHOD FOR RELIEVING PAIN” (priority 2005, published 2012).
Where no end group is shown, it is not given here.

Tests used:
carrageenan-treated mice [1] = assay: Randall-Selitto test, mechanical hyperalgesia heightened by carrageenan; assay type: in vivo
Description: In order to probe mechanical hyperalgesia in mice, the present inventors conducted the Randall-Selitto test, in which severe mechanical stress is applied to inflict pain. In detail, force is applied to a sharp-ended rod in touch with a hind paw of a mouse. As a measure of pain sensitivity, the weight of the rod at the pain threshold is recorded.
(§1) A cone-shaped rod was placed at one of the hind paws of mice treated with GsMTx4 and force was applied. […] A pain response was characterized as either raising the hind paw, rolling up the tail, or making a shrill sound.
(§2) Two groups of 8 mice each were injected with either physiological saline solution or the pain inducer carrageenan (2% solution, 50 μL, intraplantar) at their hind paws. After the first injection, either GsMTx4 (40 μg/150 g body weight) or for the positive control group, morphine (1.5 mg/150 g) was intraperitoneally injected to these mice. The Randall-Selitto test was carried out 4 hours later. Mechanical stimuli were applied in an area in the paw between the thumb and index finger. Threshold weight data were represented as percentage values against the threshold weight for mice treated saline solution (negative control).

carrageenan-treated mice [2] = assay: von Frey test, mechanical allodynia heightened by carrageenan; assay type: in vivo
Description: Mechanical stimuli were applied in an area in the paw between the thumb and index finger.

carrageenan-treated mice [3] = assay: Weight-bearing test; assay type: in vivo
Description: In order to monitor behavioral changes brought by complex mechanical stimuli, the present inventors conducted the weight-bearing test, in which complex mechanical pain is assessed as the stimulus is varied. In detail, one the hind limbs of a mouse was injected with pain inducers such as carrageenan and formalin to incur pain. In such a case, the mouse puts less weight in the injected hind limb, but puts more weight than usual in the other, normal hind limb and this difference in weight is recorded as a measure of pain.
More specifically, the principles behind this test are as follows. When a mouse receives an injection of pain inducers in only one of the hind paws, it puts more weight than usual in the other hind paw. This difference in the weight balance serves as a measure of the mouse's pain. In the present example, such weight difference per unit body weight of the mouse was reported for comparison.
Two groups of 8 mice each received an intraplantar injection of either 2% carrageenan (50 μL) or for the negative control group, physiological saline solution (100 μL) at only one of their hind paws. To the carrageenan-treated mice, either GsMTx4 (40 μg/150 g body weight) or for the positive control group, morphine (10 mg/150 g) was intraperitoneally and their weight balances were monitored 1 to 6 hours later.

[4] = test system: mice that did not receive carrageenan; assay: Randall-Selitto test, mechanical high-pressure stimuli, no pain inducer; assay type: in vivo; conditions: mice without carrageenan; compared to intraplantar saline and intraperitoneal morphine groups
Description: as §1, §2

[5] = test system: mice that did not receive carrageenan; assay: von Frey test, mechanical low-pressure stimuli, no pain inducer; assay type: in vivo; conditions: mice without carrageenan; compared to intraplantar saline and intraperitoneal morphine groups
Description: The present inventors conducted the von Frey test in order to see whether GsMTx4 of this invention has an analgesic effect against rubbing or other weak mechanical stimuli inside a living body. When a pain inducer is administered only to one of the hind paws of a mouse, the affected paw becomes sensitive and feels pain from even small mechanical stimuli. The von Frey test involves measuring the weight difference at the pain threshold between the two hind paws as one varies the width of the von Frey hair involved in giving the stimuli (http://www.2biol.com/2biol analgesia.htm; Pitcher, G. M. et al., Journal of Neuroscience Methods 87(2):185˜193, 1999).
Two groups of 8 mice each received a 50-μL intraplantar injection of either physiological saline solution or 2% carrageenan at only one of their hind paws. After the first injection, either GsMTx4 (40 μg/150 g body weight) or for the positive control group, morphine (10 mg/150 g) was intraperitoneally injected to these mice. These mice were rubbed with von Frey hairs a half to 4 hours later.
Mechanical stimuli were applied in an area in the paw between the thumb and index finger. Threshold weight data were represented as percentages against the threshold weight for mice treated saline solution (negative control).

[6] = test system: mice with neuropathic pains; assay: von Frey test under a neuropathic pain model; assay type: in vivo; conditions: tibial and sural nerves cut; 50 μg/200 g body weight; 4 hours after injection; versus saline control
Description: Neuropathic pain was induced to mice according to the method reported by Lee and others (Lee, B. et al., Neuroreport 11:657˜661, 2000). Mice were put under anesthesia and their skin was excised in the thighs to expose the tibial, sural and common peroneal nerves. Out of these, the tibial and sural nerves were bound together and cut off. Mice were then allowed to recuperate for 6 days after the operation and the monitoring for the presence of neuropathic pain began 1 week after the operation. The analgesic effect of GsMTx4 on those mice suffering from neuropathic pain was tested by the von Frey test as in Example 9.
Mice with neuropathic pains were divided into two groups of 9. To the first group, GsMTx (50 μg/200 g body weight) was injected and to the second group, physiological saline solution for control. 4 hours after the injection of GsMTx4, mechanical stimuli were applied to these mice with von Frey filaments. The width of the von Frey filament that evoked a nociceptic (flexor) reflex was recorded before and after the surgery, and the data was expressed as the percentage of the latter width in relation to the former.

mice = assay: Tail flick test, temperature stimuli; assay type: in vivo; conditions: no pain inducer; GsMTx4 40 μg/150 g intraperitoneal; compared to morphine 10 mg/150 g; 30 to 4 hours later
Description: The present inventors looked into GsMTx4 for its possible analgesic activity on pain from temperature stimuli. Mice were irradiated with infrared in their tails and monitored for their endurance against heat (tail flick test). The analgesic effect of GsMTx4 was examined by comparing data from a group of mice suffering from induced pain with those from a non-induced group (Pitcher G. M. et al., Journal of Neuroscience Methods, 87(2):185˜193, 1999).
Three groups of 8 mice each respectively received an intraperitoneal injection of either physiological saline solution (100 μL) as the negative control, or morphine (10 mg/150 g body weight) as the positive control, or GsMTx4 (40 μg/150 g). They were then subject to the tail flick test 30 to 4 hours later.

cell swelling = conditions: Sachs et al., J. Gen. Physiol. 2000; cited from earlier work
[7] = test system: stretch-activated channels (SACs); conditions: administered to the hearts of rabbits after atrial fibrillation was induced with high level stress; cited from earlier work
[8] = carrageenan-treated mice, GsMTx4 40 μg/150 g intraperitoneal

Compound: CN1CC[C@]23c4c5ccc(O)c4O[C@H]2[C@@H](O)C=C[C@H]3[C@H]1C5 [morphine, reference compound]
- pain sensitivity threshold (carrageenan-treated mice [1]; mouse, in vivo, ip): increased back substantially
- hypersensitivity (pain threshold for hair force) (carrageenan-treated mice [2]; mouse, in vivo, ip): reduce hypersensitivity
- weight difference between hind limbs (carrageenan-treated mice [3]; mouse, in vivo, ip): reverted back to a low value

Compound: GsMTx4: Spider toxin peptide of 34 amino acids (SEQ. ID NO 1), 3 disulfide bonds, mechanosensitive ion channel inhibitor; produced recombinantly in Pichia pastoris (GCLEFWWKCNPNDDKCCRPKLKCSKLFKLCNFSF; disulfide (positions not given here); not fully specified (bridges); ends not checked; listed as Grammostola spatulata)
- pain sensitivity threshold (carrageenan-treated mice [1]; 2% carrageenan 50 μL intraplantar, intraperitoneal GsMTx4 40 μg/150 g body weight or morphine 1.5 mg/150 g): increased back substantially
- time after injection at which the analgesic effect occurred (carrageenan-treated mice [1]; [8]): 30 min
- time the analgesic effect lasted (carrageenan-treated mice [1]; [8]): approximately 4 hours
- analgesic effect against mechanical high pressure [4]: evident
- hypersensitivity (pain threshold for hair force) (carrageenan-treated mice [2]; 2% carrageenan 50 μL intraplantar, intraperitoneal GsMTx4 40 μg/150 g or morphine 10 mg/150 g, a half to 4 hours later): reduce hypersensitivity
- analgesic effect against mechanical low pressure [5]: observed, albeit weakly
- weight difference between hind limbs (carrageenan-treated mice [3]; 2% carrageenan 50 μL intraplantar, GsMTx4 40 μg/150 g or morphine 10 mg/150 g intraperitoneally, 1 to 6 hours later): reverted back to a low value
- reflex threshold against mechanical stimuli (von Frey filaments) [6]: elevation of the reflex threshold
- analgesic activity against temperature stimuli (mice): either negligible or no analgesic activity
- effect on cell swelling associated with congestive heart failure (cell swelling): prevent cell swelling
- effect on atrial fibrillation [7]: relieve symptoms of atrial fibrillation
